Experimental findings from US20260078110A1, “SESTERTERPENOID COMPOUNDS AND EXTRACT L01 OF LEUCOSCEPTRUM CANUM, AND USE THEREOF IN TREATMENT OF PSORIASIS” (Kunming Institute of Botany, CAS, priority 2023, published 2026) are described below.

The test system of experiment [1] is pro-inflammatory cytokine IFN-γ secretion by mouse T cells stimulated by CD3/CD28 monoclonal antibodies. As to the kind of experiment: Inhibition of IFN-γ secretion by mouse T cells stimulated by CD3/CD28 monoclonal antibodies (ELISA). Format: cell-based. As to conditions: T-cell, 48 h, C57BL/6 mouse T cells, CD3/CD28 mAb stimulation; for inhibition at 20 µM: read-out: Inhibitory rate (%, 20 μM). Here is the method: CD3, CD28 monoclonal antibodies, and kit for IFN-γ detection were purchased from BD Bioscience, Cell Counting Kit-8 (CCK-8) was purchased from MeilunBio®, and RPMI-1640 medium and fetal bovine serum were purchased from Biological Industries.
Preparation of samples to be tested: the 12 compounds of Example 1 were dissolved in DMSO, respectively to prepare 20 mM stock solutions.
Splenocytes were aseptically isolated from 6-8 week old female C57BL/6 mice, and T cells were isolated using a nylon wool column method. The T cells were then inoculated (4×10^5 cells/well) in a 96-well plate (which was coated with 5 μg/mL of CD3 monoclonal antibody). At the same time, a prepared compound solution of 40 μM, 20 μM, 10 μM, 5 μM, 2.5 μM, or 1.25 μM along with a 2 μg/mL solution of CD28 monoclonal antibody were added into each group, respectively, which were cultured in a 37° C./5% CO2 incubator. After 48 h, the supernatant of the cells was collected and the IFN-γ secretion in the supernatant was detected by an Enzyme-Linked Immuno-Sorbent Assay (ELISA); 10 μL of CCK-8 solution was added into each well, and OD450 was measured after incubation at 37° C. for 4 h to evaluate cell proliferation. […] The inhibitory activity of the compounds on IFN-γ was calculated, and the half-maximal inhibitory concentration (IC50) was analyzed using GraphPadPrism software.

For experiment [2], the system named is imiquimod-induced psoriasis mice. Description: In vivo anti-psoriasis activity test on sesterterpenoid compound 6 (imiquimod-induced psoriasis mouse model). As to conditions: 25 and 50 mg/kg intraperitoneal injection, day 1 to 6. How it is done: Establishment and pharmacodynamic study of a mouse model of imiquimod-induced psoriasis: the mice were randomly divided into a control group, a model group, a methotrexate (MTX) treatment (1 mg/kg) group, and Leucosceptrum canum sesterterpenoid treatment (50 mg/kg, 150 mg/kg, 450 mg/kg) groups, with 6 mice in each group. The mice were depilated on their backs before the experiment, and 62.5 mg of […] imiquimod cream was evenly applied on the backs of mice while an equivalent amount of Vaseline was applied on the backs of mice in the normal control group from the 1st day, the application was performed once a day for 6 d. From the 1st day 1 to the 6th day, each treatment group was given the drug by gavage. During the experiment, the mice were weighed and scored for the Psoriasis Area and Severity Index (PASI) according to the following criteria: 0 points, normal skin without erythema and scales; 1 point, mild erythema, a few fine scales, and the skin at the lesion being slightly higher than normal skin; 2 points, moderate red plaques, the surface of the lesions being covered with scales, and the lesions being flaky or moderately raised; 3 points, severe dark red plaques, almost all the lesions being covered with thick scales or obvious lesions; 4 points, extremely severe and dark red plaques, all lesions being covered with highly thick layered scales, and the thickening and protrusion of the lesions being extremely obvious. After the experiment, the back skin of the mice was taken to make pathological sections. The levels of pro-inflammatory cytokines IFN-γ and IL-17A in mouse serum were detected by ELISA.
A method for establishing the imiquimod-induced psoriasis mouse model was the same as that in Example 4. The mice were randomly divided into a control group, a model group, a methotrexate (MTX) treatment group (1 mg/kg), and compound 6 treatment groups (25 and 50 mg/kg), with 6 mice in each group. From the 1st day to the 6th day, drugs were given to each treatment group by intraperitoneal injection. During the experiment, the mice were weighed and scored for PASI. After the experiment, the back skin of the mice was taken to make pathological sections. The levels of pro-inflammatory cytokines IFN-γ and IL-17A in mouse serum were detected by ELISA.

For `CC1=C[C@@]2(O)[C@@](O)(OC1)[C@@H](C)[C@@H]1CC[C@H](C)[C@H]1[C@@]2(O)C(=O)[C@@H](C)C[C@H]1C(=O)C(C)=C[C@@H]1O` [Compound 12], in experiment [1], the inhibition at 20 µM amounted to 33.8 ± 2.27%.

Take `CC1=C[C@@]2(O)[C@@](O)(OC1)[C@@H](C)[C@@H]1CC[C@H](C)[C@H]1[C@]2(O)C(=O)[C@H](C)CCC1=C(C)CC(=O)O1` [Compound 8]: the inhibition at 20 µM in experiment [1] turned out to be 43.1 ± 7.35%.

`CC[C@@H](C)C(=O)[C@@]1(O)[C@H]2[C@@H](CC[C@@H]2C)[C@H](C)[C@]2(O)OCC(C)=C[C@@]21O` [Compound 4]: in experiment [1], the inhibition at 20 µM worked out at 26.7 ± 5.85%.

For `CC1=C[C@@]2(O)[C@@](O)(OC1)[C@@H](C)[C@@H]1CC[C@H](C)[C@H]1[C@]2(O)C(=O)[C@H](C)CCO` [Compound 5], in experiment [1], the inhibition at 20 µM was 10.7 ± 2.74%.

As to `COC1(CC[C@@H](C)C(=O)[C@@]2(O)[C@H]3[C@@H](CC[C@@H]3C)[C@H](C)[C@]3(O)OCC(C)=C[C@@]32O)OC(=O)C=C1C` (some centres unmarked) [Compound 9], the inhibition at 20 µM in experiment [1] turned out to be 39.6 ± 7.93%.

As to `CC(C)=C[C@]1(O)C(=O)[C@@H](C)[C@@H]2CC[C@H](C)[C@H]2[C@]1(O)C(=O)[C@H](C)CC[C@@H]1OC(=O)C=C1C` [Compound 1], the inhibition at 20 µM in experiment [1] turned out to be 32.1 ± 5.46%.

Regarding `COC1C=C(C)C(CC[C@@H](C)C(=O)[C@@]2(O)[C@H]3[C@@H](CC[C@@H]3C)[C@H](C)[C@]3(O)OCC(C)=C[C@@]32O)(OC)O1` (some centres unmarked) [Compound 10], in experiment [1], the inhibition at 20 µM was determined as 10.4 ± 3.02%.

Turning to `CC1=C[C@@]2(O)[C@@](O)(OC1)[C@@H](C)[C@@H]1CC[C@H](C)[C@H]1[C@]2(O)C(=O)[C@H](C)CCc1occc1C` [Compound 6], in experiment [1], the inhibition at 20 µM turned out to be 66.8 ± 3.02% and the IC50 was determined as 5.74 µM. In experiment [2], the “level of IFN-γ in the serum of psoriasis mice (FIG. 10A-10B, ELISA)” value is on record as “significantly reduces”; the “level of IL-17A in the serum of psoriasis mice (FIG. 10A-10B, ELISA)” value was “significantly reduces”; the “pathological damage of the skin tissue of psoriasis mice (FIG. 9, HE staining)” value was “significantly inhibits”; the “symptoms of psoriasis in mice (FIG. 8)” value was “significantly improves”.

With `CC(C)=C[C@]1(O)C(=O)[C@@H](C)[C@@H]2CC[C@H](C)[C@H]2[C@@]1(O)C(=O)[C@H](C)CCc1occc1C` [Compound 3], in experiment [1], the inhibition at 20 µM was 30.5 ± 6.55%.

As to `CC(C)=C[C@]1(O)C(=O)[C@@H](C)[C@@H]2CC[C@H](C)[C@H]2[C@@]1(O)C(=O)[C@H](C)CC[C@@H]1OC(=O)C=C1C` [Compound 2], the inhibition at 20 µM in experiment [1] was 51.3 ± 7.1%.

For `CC1=C[C@@]2(O)[C@@](O)(OC1)[C@@H](C)[C@@H]1CC[C@H](C)[C@H]1[C@]2(O)C(=O)[C@H](C)CC(=O)c1occc1C` [Compound 7], in experiment [1], the inhibition at 20 µM is 36.2 ± 8.27%.

For `CC1=C[C@@]2(O)[C@@](O)(OC1)[C@@H](C)[C@@H]1CC[C@H](C)[C@H]1[C@@]2(O)C(=O)[C@H](C)C[C@H]1C(=O)C(C)=C[C@@H]1O` [Compound 11], in experiment [1], the inhibition at 20 µM was found to be 23.4 ± 1.24%.

One may read the IC50 as the concentration at which inhibition is half-maximal. Lower therefore signals greater potency.
